“And” between values parts separate entries of the source, which are not always exact repeats. Equal values may be shown once. “Also recorded” adds a separate entry of the source.
Experiments:
Human α-thrombin = target: T1, Human α-thrombin (Homo sapiens, UniProt P00734); assay: Inhibition of thrombin-catalyzed hydrolysis of chromogenic substrate S-2366 (inhibition constant Ki); format: biochemical; details: for Ki: T = 37° C., enzyme kinetics, chromogenic substrate
T1 construct: Human α-thrombin was purchased from Haemotologic Technologies, Inc., VT, USA; purchased Haemotologic Technologies, Inc., VT, USA

thrombin = thrombin (Homo sapiens, UniProt P00734); assay: Cleavage of thrombin-sensitive peptides catalyzed by thrombin, followed by HPLC; format: biochemical; design: rapidly converts prothrombin into the ultimate protease thrombin; details: 75 μM peptide, 23 nM thrombin, pH 7.6, 37° C.
[1] = system: FeCl3-induced arterial thrombosis (carotid artery); assay: FeCl3-induced arterial model of thrombosis in rats (time to occlusion); format: in vivo; details: rat, single bolus 0.2 mg/kg plus maintenance infusion 0.00433 mg/kg/min
Protocol: Male Sprague-Dawley rats (250-310 g; Charles River Laboratories, St-Constant, QC, Canada) were acclimated for at least 3 days prior to the start of the study. Animals were housed in microisolator cages and were kept on a 12-hr light/dark cycle with constant temperature and humidity. Food and water were provided ad libitum. Various anti-thrombotic agents and peptides of this invention were dissolved in saline (0.9% sodium chloride) prior to use.
The FeCl3-induced arterial model of thrombosis in rats was also generated as described by Wang and Xu (Wang 2005) with some modifications (Couture 2011). Briefly, rats were anesthetized with a 2.5% isoflurane/oxygen mixture and placed on a heat source (35-37° C.). An incision was made over the right carotid artery, and a segment of the artery was exposed via blunt dissection. A Doppler flow probe (Model MA1PRB, Transonic System Inc., Ithaca, N.Y., USA) connected to a perivascular flow module (TS420, Transonic System Inc., Ithaca, N.Y., USA) was then attached to the carotid artery to monitor blood flow. Data were collected and analyzed using the MP100 Biopac™ Systems (Biopac Systems, Santa Barbara, Calif., USA), and the AcgKnowledge™ software (Biopac Systems, Santa Barbara, Calif., USA), respectively. Baseline blood flow was recorded for a minimum of 15 minutes until readings stabilized. Aquasonic 100 gel (Parker Laboratories, Inc., Fairfield, N.J., USA) was added to help conductivity and any fluid accumulating at the site of surgery was removed during data sampling without touching the probe. […] One minute after drug administration, a piece of filter paper (Gel Blot Paper, GB003, Whatman, Piscataway, N.J., USA; 7 mm diameter) saturated with 20% FeCl3 (EMD Chemicals Inc., Gibbstown, N.J., USA) was placed on the exposed surface of the carotid artery and incubated for 3.5 minutes. During the application of FeCl3, the neck region was covered with aluminum foil. At the end of the incubation period, the filter paper was removed and the exposed carotid was covered with a saline-soaked gauze. Time to occlusion was defined as the time from the application of FeCl3 until blood flow decreased to zero. […] Preparing and processing each animal took approximately 1 hr and 7 animals were treated each day. Control animals were always included when the other treatments were being administered. For this reason, the number of animals in the control group is higher than that of the treated-groups.
Statistical analysis was conducted using GraphPad™ Prism (GraphPad Software Inc., San Diego Calif., USA). Data were analyzed using one-way ANOVA with post-hoc Bonferroni correction for multiple comparisons. The relationship between thrombus weight and thrombus volume was determined by linear regression. […]

[2] = system: fresh blood withdrawn from rats with venous thrombosis; assay: Clotting time (aPTT) of fresh blood withdrawn from treated rats; format: in vivo; details: rat, 0.2 mg/kg bolus + 0.00433 mg/kg/min infusion; 20 minutes after administration versus before
Protocol: FIG. 23 illustrates the clotting times (aPTT) determined for fresh blood withdrawn from rats with venous thrombosis at three time points, the first before drug administration and vessel injury, the second at 20 minutes after FeCl3 application and the third 60 minutes following injection of the respective thrombin inhibitors. Clotting times (aPTT) are shown for different rats administered with each thrombin inhibitor, ZIP4 for MH2-wZIP4, ZIP5 for MH2-wZIP5 and T218 for BRI-T218. Dosage levels for every compound were 0.2 mg/kg for the single-bolus injection and 0.00433 mg/kg/min for the maintenance infusion,
Terminal blood samples were analyzed for aPTT within 15 to 30 minutes of collection using a Coag DX Analyzer with aPTT citrate cartridges (IDEXX Laboratories, Westbrook, Me., USA).

CC[C@H](C)[C@H](NC(=O)[C@H](CCC(=O)O)NC(=O)[C@H](CCC(=O)O)NC(=O)[C@H](Cc1ccccc1)NC(=O)[C@H](CC(=O)O)NC(=O)CNC(=O)[C@H](CCC(=O)O)NC(=O)[C@@H](NC(=O)[C@H](Cc1c[nH]c2ccccc12)NC(=O)[C@@H](NC(=O)[C@H](Cc1c[nH]c2ccccc12)NC(=O)[C@@H](NC(=O)[C@H](CCCCN)NC(=O)[C@@H](NC(=O)[C@H](C)NC(=O)[C@H](CC(=O)O)NC(=O)[C@H](CC(=O)O)NC(=O)[C@H](Cc1c[nH]c2ccccc12)NC(=O)[C@@H](NC(=O)[C@H](Cc1c[nH]c2ccccc12)NC(=O)[C@H](CCC(=O)O)NC(=O)CNC(=O)[C@H](CC(=O)O)NC(=O)[C@@H](NC(=O)[C@H](Cc1ccccc1)NC(=O)[C@H](CCCNC(=N)N)NC(=O)[C@@H]1CCCN1C(=O)[C@H](CCCNC(=N)N)NC(=O)[C@@H]1CCCN1C(=O)[C@H](N)Cc1ccccc1)[C@@H](C)O)[C@@H](C)O)[C@@H](C)O)[C@@H](C)O)[C@@H](C)O)[C@@H](C)O)C(=O)N1CCC[C@H]1C(=O)N[C@@H](CCC(=O)O)C(=O)N[C@@H](CCC(=O)O)C(=O)N[C@@H](Cc1ccc(O)cc1)C(=O)N[C@@H](CC(C)C)C(=O)O [BRI-T208]
reduction of Ki as compared to BRI-T207 (Human α-thrombin): about 13 fold | reduction of Ki as compared to MH2-wZIP4 (Human α-thrombin): approximately 5 fold | Ki (Human α-thrombin): ~28 nM and 28 nM | cleavage by thrombin (thrombin): significantly more resistant to thrombin cleavage than BRI-T218

CC[C@H](C)[C@H](NC(=O)[C@H](CCCNC(=N)N)NC(=O)[C@@H]1CCCN1C(=O)[C@H](N)Cc1ccccc1)C(=O)N[C@@H](CCCNC(=N)N)C(=O)N[C@@H](Cc1ccccc1)C(=O)N[C@H](C(=O)N[C@@H](CC(=O)O)C(=O)NCC(=O)N[C@@H](CCC(=O)O)C(=O)N[C@@H](Cc1c[nH]c2ccccc12)C(=O)N[C@H](C(=O)N[C@@H](Cc1c[nH]c2ccccc12)C(=O)N[C@@H](CC(=O)O)C(=O)N[C@@H](CC(=O)O)C(=O)N[C@@H](C)C(=O)N[C@H](C(=O)N[C@@H](CCCCN)C(=O)N[C@H](C(=O)N[C@@H](Cc1c[nH]c2ccccc12)C(=O)N[C@H](C(=O)N[C@@H](Cc1c[nH]c2ccccc12)C(=O)N[C@H](C(=O)N[C@@H](CCC(=O)O)C(=O)NCC(=O)N[C@@H](CC(=O)O)C(=O)N[C@@H](Cc1ccccc1)C(=O)N[C@@H](CCC(=O)O)C(=O)N[C@@H](CCC(=O)O)C(=O)N[C@H](C(=O)N1CCC[C@H]1C(=O)N[C@@H](CCC(=O)O)C(=O)N[C@@H](CCC(=O)O)C(=O)N[C@@H](Cc1ccc(O)cc1)C(=O)N[C@@H](CC(C)C)C(=O)O)[C@@H](C)CC)[C@@H](C)O)[C@@H](C)O)[C@@H](C)O)[C@@H](C)O)[C@@H](C)O)[C@@H](C)O [BRI-T218]
Ki (Human α-thrombin): ~14 nM and 14 nM | anti-thrombotic efficacy in arterial model [1]: appears to restore the anti-thrombotic activity; also recorded: increases the efficacy | clotting time (aPTT), systemic anticoagulant effect [2]: only a slight prolongation of the clotting time (aPTT) | cleavage by thrombin (thrombin): completely converted to the cleavage products within two hours; also recorded: almost completion of the cleavage reaction after 2 hours of incubation

— patent US10155802B2, “Locally-active anticoagulants and anti-inflammatory agents” (priority 2011, dated 2018)
